# Results published in patent publication US20070009495A1, “Method for treating or preventing systemic inflammation in formula-fed infants” (priority 2005, published 2007).
# Assays:
# Assay type in all cases: in vivo, Sprague-Dawley infant rats
# TNF-α [1] = assay: Multiplex bead cytokine assay, TNF-α
# Text: (§1) This example describes the materials and methods necessary to show the effect of LGG on formula-fed neonatal rat pups. In two separate experiments, ten Sprague-Dawley (Taconic, Germantown, N.Y.) infant rats were randomly assigned to two gastrostomy feeding groups with five rats per group. Gastrostomy feeding, using the rat infant “pup-in-the-cup” model, began on day 7 of life of the rat pups. The gastrostomy feeding tubes were constructed from 14-cm sections of polyethylene tubing that were inserted into the stomach of the pups. This is a commonly used model in studies of developmental nutrition when it is important to manipulate nutritional composition in the absence of maternal feedings. […]
# (§2) During a 2-day acclimation period, the gastrostomy-fed rat pups were fed with rat milk substitute (RMS). […] All of the gastrostomy-fed groups received the same quantity of fat and carbohydrates.
# (§3) Lipopolysaccharide (LPS) from Escherichia coli 0127:B8 (LPS; Sigma, St. Louis, Mo.) was dissolved in water by vortexing at a concentration of 2 mg/ml. […] This dose was determined in pilot studies to result in occasional shivering, piloerection, and poor weight gain but was not associated with a significant increase in mortality over a 6-day period. […]
# (§4) To further investigate the effects of LPS and LGG on cytokines, 14 cytokines/chemokines from lung, liver, plasma and distal small intestine were analyzed. […]
# IL-1β = assay: Multiplex bead cytokine assay, IL-1β
# Text: as §1, §2, §3, §4
# IL-6 = assay: Multiplex bead cytokine assay, IL-6
# Text: as §1, §2, §3, §4
# GRO/KC (rat CINC-1) = assay: Multiplex bead cytokine assay, GRO/KC
# Text: as §1, §2, §3, §4
# CINC-1 = CINC-1 peptide production by ELISA in rat pup tissues
# Text: This example describes the materials and methods necessary to show the effect of LGG on formula-fed neonatal rat pups. In two separate experiments, ten Sprague-Dawley (Taconic, Germantown, N.Y.) infant rats were randomly assigned to two gastrostomy feeding groups with five rats per group. Gastrostomy feeding, using the rat infant “pup-in-the-cup” model, began on day 7 of life of the rat pups. The gastrostomy feeding tubes were constructed from 14-cm sections of polyethylene tubing that were inserted into the stomach of the pups. This is a commonly used model in studies of developmental nutrition when it is important to manipulate nutritional composition in the absence of maternal feedings. The gastrostomy placement was done under isoflurane anesthesia. Timer-controlled syringe pumps were connected to the feeding tubes and were set to feed the rats for the first 20 minutes of every hour at a weight-dependent flow rate. Five mother-reared rats of the same age were used as reference controls.
# During a 2-day acclimation period, the gastrostomy-fed rat pups were fed with rat milk substitute (RMS). The protein component of the RMS was between 30 and 40 g/kg/day, which is similar to that of mother's milk and is required for normal growth. One of the RMS fed groups was also given a supplement of 1×10^8 cfu/L/kg/day LGG. The other group was fed RMS alone, without LGG supplementation. All of the gastrostomy-fed groups received the same quantity of fat and carbohydrates.
# Lipopolysaccharide (LPS) from Escherichia coli 0127:B8 (LPS; Sigma, St. Louis, Mo.) was dissolved in water by vortexing at a concentration of 2 mg/ml. The gastrostomy-fed rats were given between 0.25 and 0.5 mg/kg/day of LPS via the gastrostomy tube starting 2 days after the initiation of artificial feeding. The pups were given LPS supplementation for 6 days. This dose was determined in pilot studies to result in occasional shivering, piloerection, and poor weight gain but was not associated with a significant increase in mortality over a 6-day period.
# At the end of the 6-day treatment period, the rat pups were euthanized with an overdose of pentobarbital sodium. The small intestine was removed and separated into three parts: the ileum, jejunum, and duodenum, stored at −80° C. for enzyme assays and ELISA, or fixed in 10% neutral buffered formalin for intestinal morphology. Lung, liver and plasma were stored at −80° C. for enzyme assays and ELISA.
# This example illustrates the effect of LGG on CINC-1. Small intestine and plasma CINC-1 levels were determined by TiterZyme Enzyme Immunometric Assay kits for rat growth-related oncogene/CINC-1 (Assay Designs, Ann Arbor, Mich.). Absorbance was determined at 450 nm, and concentration was calculated using the equation derived from a linear standard curve.
# To further investigate the effects of the diets on CINC-1 peptide, CINC-1 production was evaluated by ELISA in the small intestine, liver, lung and plasma. In an initial experiment, LPS administration to rat pups caused an approximate 4-fold elevation in CINC-1 over non-LPS treated pups fed by gastrostomy (data not shown). […] In the liver and plasma, LGG supplementation reduced CINC-1 levels to a level which was very similar to that of mother's milk-fed rat pups.
# IL-10 = assay: Multiplex bead cytokine assay, IL-10
# Text: as §1, §2, §3, §4
# ileum intestinal mucosa = assay: Intestinal morphology of ileum (H&E stain) in LPS-treated rat pups
# Text: (§5) This example describes the materials and methods necessary to show the effect of LGG on formula-fed neonatal rat pups. In two separate experiments, ten Sprague-Dawley (Taconic, Germantown, N.Y.) infant rats were randomly assigned to two gastrostomy feeding groups with five rats per group. Gastrostomy feeding, using the rat infant “pup-in-the-cup” model, began on day 7 of life of the rat pups. The gastrostomy feeding tubes were constructed from 14-cm sections of polyethylene tubing that were inserted into the stomach of the pups. This is a commonly used model in studies of developmental nutrition when it is important to manipulate nutritional composition in the absence of maternal feedings. The gastrostomy placement was done under isoflurane anesthesia. […]
# as §2, §3
# TNF-α [2] = assay: TNF-α production by ELISA in plasma and lung of rat pups
# Text: as §1, §2, §3
# To further investigate the effects of the diets on TNF-α, TNF-α production was evaluated by ELISA in the plasma and lung. […]
# MPO = MPO activity in distal small intestine and lung of rat pups
# Text: as §1, §2, §3
# This example illustrates the effect of LGG on MPO levels. […] MPO concentration of the supernatant was measured by the H2O2-dependent oxidation of tetramethylbenzidine. […]
# [3] = Growth (body weight) of gastrostomy-fed, LPS-treated rat pups; settings: LGG 1×10^8 cfu/L/kg/day
# Text: as §5, §2, §3
# [4] = tested on: cytokine/chemokine levels; assay: Multiplex bead cytokine assay, liver cytokine/chemokine levels
# Text: as §1, §2, §3, §4
# IL-18 = assay: Multiplex bead cytokine assay, IL-18
# Text: as §1, §2, §3, §4
substance,measurement,setting,value
Lactobacillus rhamnosus GG [LGG],"LPS induced elevation of TNF-α, lung",TNF-α [1],significantly blunted
same,"LPS induced elevation of IL-1β, lung",IL-1β; lung,significantly blunted
same,"LPS induced elevation of IL-1β, plasma",IL-1β; plasma,significantly blunted
same,"LPS induced elevation of IL-6, lung",IL-6; lung,significantly blunted
same,"LPS induced elevation of IL-6, plasma",IL-6; plasma,significantly blunted
same,"LPS induced elevation of GRO/KC (rat CINC-1), lung",GRO/KC (rat CINC-1); lung,significantly blunted
same,"LPS induced elevation of GRO/KC (rat CINC-1), plasma",GRO/KC (rat CINC-1); plasma,significantly blunted
same,liver CINC-1 concentration,"CINC-1; liver, LPS/LGG vs LPS",significantly attenuated
same,lung CINC-1,"CINC-1; lung, LPS/LGG vs LPS",significantly attenuated
same,plasma CINC-1 concentration,"CINC-1; plasma, LPS/LGG vs LPS",significantly attenuated
same,intestinal CINC-1 levels,"CINC-1; small intestine, LPS vs LPS/LGG vs mother-fed",did not differ significantly among the 3 groups
same,"LPS induced elevation of IL-10, lung",IL-10,significantly blunted
same,"ileum histological features (metaplasia, lymphoplasmacytic infiltrate, thinning of muscularis mucosa, regenerative crypt changes)",ileum intestinal mucosa; LPS plus LGG group vs LPS group,attenuated
same,physical damage in the intestinal mucosa,ileum intestinal mucosa; LPS/LGG group vs mother's milk-fed rat pups,reduced to a level similar to that of mother's milk-fed rat pups
same,"LPS induced elevation of TNF-α, lung",TNF-α [2]; lung,significantly blunted
same,"LPS induced elevation of TNF-α, plasma",TNF-α [2]; plasma,significantly blunted
same,"LPS induced elevation of MPO, distal small intestine",MPO; distal small intestine,significantly blunted
same,"LPS induced elevation of MPO, lung",MPO; lung,significantly blunted
same,weight gain,[3],did not improve weight gain
same,LPS induced increase of cytokine/chemokine levels in the liver,[4],blunted
same,"LPS induced elevation of IL-18, lung",IL-18; lung,significantly blunted
same,"LPS induced elevation of IL-18, plasma",IL-18; plasma,significantly blunted
Lipopolysaccharide (LPS) from Escherichia coli 0127:B8 [reference compound],elevation in CINC-1,"CINC-1; initial experiment, over non-LPS treated pups fed by gastrostomy (data not shown)",approximately 4 fold
same,"liver CINC-1 concentration, fold as high","CINC-1; liver, LPS treated group that did not receive LGG",~2 fold
same,lung CINC-1 elevation,"CINC-1; lung, LPS treatment compared to mother-fed controls",approximately 4 fold
same,"plasma CINC-1 concentration, fold as high","CINC-1; plasma, LPS treated group that did not receive LGG",~2 fold
